Reference: the supplement of paper PMC10307832

Legend:
Test in all cases: relative viability (nuclei count vs DMSO), 5 days (fraction); higher = more cells survive
[1] = test system: UMC-11
In short: (§1)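 Each reported value is a median over duplicate plates. It expresses relative viability: treated-well nuclei count divided by vehicle-well nuclei count. Lung cancer cell lines in 1536-well plates were dosed by pin tool a day after seeding, alone with one drug or with a fixed anchor-drug dose plus five library-drug doses (not always all listed) in √10 steps, and nuclei were counted after 5 days.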

[2] = test system: COR-L23
In short: as §1

[3] = test system: SW 900
In short: as §1

[4] = test system: NCI-H1563
In short: as §1

[5] = test system: HCC-15
In short: as §1

[6] = test system: EPLC-272H
In short: as §1

[7] = test system: 201T
In short: as §1

[8] = test system: NCI-H1650
In short: as §1

[9] = test system: LOU-NH91
In short: as §1

[10] = test system: NCI-H647
In short: as §1

[11] = test system: PC-14
In short: as §1

[12] = test system: H3255
In short: as §1

[13] = test system: NCI-H2170
In short: as §1

[14] = test system: NCI-H3122
In short: as §1

[15] = test system: NCI-H322M
In short: as §1

[16] = test system: NCI-H520
In short: as §1

[17] = test system: NCI-H1734
In short: as §1

[18] = test system: NCI-H2405
In short: as §1

[19] = test system: NCI-H441
In short: as §1

[20] = test system: NCI-H2347
In short: as §1

[21] = test system: NCI-H1793
In short: as §1

[22] = test system: NCI-H2023
In short: as §1

Nc1ccn([C@@H]2O[C@H](CO)[C@@H](O)[C@@H]2O)c(=O)n1 [Cytarabine] + Nc1nc2[nH]cc(CCc3ccc(C(=O)N[C@@H](CCC(=O)O)C(=O)O)cc3)c2c(=O)[nH]1 [Pemetrexed] (partner 0.2 µM)
relative viability ([1]; first compound 0.005 µM): 0.551 | relative viability ([1]; first compound 0.01581 µM): 0.491 | relative viability ([1]; first compound 0.05 µM): 0.428 | relative viability ([1]; first compound 0.1581 µM): 0.226 | relative viability ([1]; first compound 0.5 µM): 0.195 | relative viability ([2]; first compound 0.005 µM): 0.196 | relative viability ([2]; first compound 0.01581 µM): 0.204 | relative viability ([2]; first compound 0.05 µM): 0.206 | relative viability ([2]; first compound 0.1581 µM): 0.16 | relative viability ([2]; first compound 0.5 µM): 0.158 | relative viability ([3]; first compound 0.005 µM): 0.432 | relative viability ([3]; first compound 0.01581 µM): 0.499 | relative viability ([3]; first compound 0.05 µM): 0.441 | relative viability ([3]; first compound 0.1581 µM): 0.179 | relative viability ([3]; first compound 0.5 µM): 0.143 | relative viability ([4]; first compound 0.005 µM): 0.823 | relative viability ([4]; first compound 0.01581 µM): 0.727 | relative viability ([4]; first compound 0.05 µM): 0.637 | relative viability ([4]; first compound 0.1581 µM): 0.505 | relative viability ([4]; first compound 0.5 µM): 0.44 | relative viability ([5]; first compound 0.005 µM): 0.249 | relative viability ([5]; first compound 0.01581 µM): 0.215 | relative viability ([5]; first compound 0.05 µM): 0.226 | relative viability ([5]; first compound 0.1581 µM): 0.225 | relative viability ([5]; first compound 0.5 µM): 0.222 | relative viability ([6]; first compound 0.005 µM): 0.232 | relative viability ([6]; first compound 0.01581 µM): 0.338 | relative viability ([6]; first compound 0.05 µM): 0.289 | relative viability ([6]; first compound 0.1581 µM): 0.27 | relative viability ([6]; first compound 0.5 µM): 0.222 | relative viability ([7]; first compound 0.005 µM): 0.361 | relative viability ([7]; first compound 0.01581 µM): 0.353 | relative viability ([7]; first compound 0.05 µM): 0.309 | relative viability ([7]; first compound 0.1581 µM): 0.325 | relative viability ([7]; first compound 0.5 µM): 0.25 | relative viability ([8]; first compound 0.005 µM): 0.367 | relative viability ([8]; first compound 0.01581 µM): 0.353 | relative viability ([8]; first compound 0.05 µM): 0.262 | relative viability ([8]; first compound 0.1581 µM): 0.199 | relative viability ([8]; first compound 0.5 µM): 0.158 | relative viability ([9]; first compound 0.005 µM): 0.383 | relative viability ([9]; first compound 0.01581 µM): 0.395 | relative viability ([9]; first compound 0.05 µM): 0.379 | relative viability ([9]; first compound 0.1581 µM): 0.318 | relative viability ([9]; first compound 0.5 µM): 0.339 | relative viability ([10]; first compound 0.005 µM): 0.185 | relative viability ([10]; first compound 0.01581 µM): 0.174 | relative viability ([10]; first compound 0.05 µM): 0.0984 | relative viability ([10]; first compound 0.1581 µM): 0.0797 | relative viability ([10]; first compound 0.5 µM): 0.0683 | relative viability ([11]; first compound 0.005 µM): 0.183 | relative viability ([11]; first compound 0.01581 µM): 0.156 | relative viability ([11]; first compound 0.05 µM): 0.187 | relative viability ([11]; first compound 0.1581 µM): 0.0581 | relative viability ([11]; first compound 0.5 µM): 0.0565 | relative viability ([12]; first compound 0.005 µM): 0.625 | relative viability ([12]; first compound 0.01581 µM): 0.565 | relative viability ([12]; first compound 0.05 µM): 0.506 | relative viability ([12]; first compound 0.1581 µM): 0.526 | relative viability ([12]; first compound 0.5 µM): 0.432 | relative viability ([13]; first compound 0.005 µM): 0.331 | relative viability ([13]; first compound 0.01581 µM): 0.291 | relative viability ([13]; first compound 0.05 µM): 0.333 | relative viability ([13]; first compound 0.1581 µM): 0.205 | relative viability ([13]; first compound 0.5 µM): 0.183 | relative viability ([14]; first compound 0.005 µM): 0.207 | relative viability ([14]; first compound 0.01581 µM): 0.196 | relative viability ([14]; first compound 0.05 µM): 0.227 | relative viability ([14]; first compound 0.1581 µM): 0.381 | relative viability ([14]; first compound 0.5 µM): 0.156 | relative viability ([15]; first compound 0.005 µM): 0.609 | relative viability ([15]; first compound 0.01581 µM): 0.628 | relative viability ([15]; first compound 0.05 µM): 0.572 | relative viability ([15]; first compound 0.1581 µM): 0.408 | relative viability ([15]; first compound 0.5 µM): 0.384 | relative viability ([16]; first compound 0.005 µM): 0.605 | relative viability ([16]; first compound 0.01581 µM): 0.65 | relative viability ([16]; first compound 0.05 µM): 0.639 | relative viability ([16]; first compound 0.1581 µM): 0.528 | relative viability ([16]; first compound 0.5 µM): 0.398 | relative viability ([17]; first compound 0.005 µM): 0.501 | relative viability ([17]; first compound 0.01581 µM): 0.236 | relative viability ([17]; first compound 0.05 µM): 0.193 | relative viability ([17]; first compound 0.1581 µM): 0.117 | relative viability ([17]; first compound 0.5 µM): 0.103 | relative viability ([18]; first compound 0.005 µM): 1 | relative viability ([18]; first compound 0.01581 µM): 0.654 | relative viability ([18]; first compound 0.05 µM): 0.61 | relative viability ([18]; first compound 0.1581 µM): 0.495 | relative viability ([18]; first compound 0.5 µM): 0.41 | relative viability ([19]; first compound 0.005 µM): 0.273 | relative viability ([19]; first compound 0.01581 µM): 0.251 | relative viability ([19]; first compound 0.05 µM): 0.331 | relative viability ([19]; first compound 0.1581 µM): 0.226 | relative viability ([19]; first compound 0.5 µM): 0.144 | relative viability ([20]; first compound 0.005 µM): 0.392 | relative viability ([20]; first compound 0.01581 µM): 0.522 | relative viability ([20]; first compound 0.05 µM): 0.439 | relative viability ([20]; first compound 0.1581 µM): 0.44 | relative viability ([20]; first compound 0.5 µM): 0.391 | relative viability ([21]; first compound 0.005 µM): 0.902 | relative viability ([21]; first compound 0.01581 µM): 0.827 | relative viability ([21]; first compound 0.05 µM): 0.827 | relative viability ([21]; first compound 0.1581 µM): 0.374 | relative viability ([21]; first compound 0.5 µM): 0.206 | relative viability ([22]; first compound 0.005 µM): 0.193 | relative viability ([22]; first compound 0.01581 µM): 0.126 | relative viability ([22]; first compound 0.05 µM): 0.105 | relative viability ([22]; first compound 0.1581 µM): 0.0804 | relative viability ([22]; first compound 0.5 µM): 0.0895
